The values that follow come from US7858635B2 (priority 2005, dated 2010).

One assay concerns the target T1, M1 muscarinic receptor (Homo sapiens, UniProt P11229).
T1 construct: expressed in transfected cells; host or cells: CHO cells (M1-CHO, under zeocin and G418 selection)
T1 sequence (P11229 1-460): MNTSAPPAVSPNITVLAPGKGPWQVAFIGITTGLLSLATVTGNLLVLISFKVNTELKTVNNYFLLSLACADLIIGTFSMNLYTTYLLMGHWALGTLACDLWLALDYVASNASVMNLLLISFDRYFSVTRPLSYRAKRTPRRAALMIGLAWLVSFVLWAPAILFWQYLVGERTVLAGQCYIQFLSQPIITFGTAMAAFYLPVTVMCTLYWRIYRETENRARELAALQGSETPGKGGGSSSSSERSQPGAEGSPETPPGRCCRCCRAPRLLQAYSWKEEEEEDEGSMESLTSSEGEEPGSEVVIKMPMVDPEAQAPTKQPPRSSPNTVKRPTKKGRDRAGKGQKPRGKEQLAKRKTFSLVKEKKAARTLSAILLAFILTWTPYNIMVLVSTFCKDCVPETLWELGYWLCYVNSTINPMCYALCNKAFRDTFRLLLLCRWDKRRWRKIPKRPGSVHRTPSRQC
As to the kind of experiment: Functional mobilization of intracellular calcium (FLIPR, Fluo-3), M1-CHO cells. The class given is cell-based. As to conditions: for Emax: 100% efficacy is the maximum response obtained with the Carbachol control, read-out: M1 Efficacy. The gist of the method: (§1)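 Fluo-3 read-out, ex 488/em 540 nm, 60 sec on FLIPR 3. For agonist mode, compound added directly; for inhibition, 15 min compound pre-incubation before carbachol at EC80 (added as a 3× solution), or co-application. Buffer pH 7.4 with 1 mM probenecid; DMSO 0.5%.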
(A change in cytosolic calcium serves as a functional read-out for many receptors and channels.)

In the next assay the target is T2, M4 muscarinic receptor (Homo sapiens, UniProt P08173).
T2 construct: expressed in transfected cells; host or cells: CHO cells (M4-CHO, under puromycin, zeocin and blasticidin selection)
T2 sequence (P08173 1-479): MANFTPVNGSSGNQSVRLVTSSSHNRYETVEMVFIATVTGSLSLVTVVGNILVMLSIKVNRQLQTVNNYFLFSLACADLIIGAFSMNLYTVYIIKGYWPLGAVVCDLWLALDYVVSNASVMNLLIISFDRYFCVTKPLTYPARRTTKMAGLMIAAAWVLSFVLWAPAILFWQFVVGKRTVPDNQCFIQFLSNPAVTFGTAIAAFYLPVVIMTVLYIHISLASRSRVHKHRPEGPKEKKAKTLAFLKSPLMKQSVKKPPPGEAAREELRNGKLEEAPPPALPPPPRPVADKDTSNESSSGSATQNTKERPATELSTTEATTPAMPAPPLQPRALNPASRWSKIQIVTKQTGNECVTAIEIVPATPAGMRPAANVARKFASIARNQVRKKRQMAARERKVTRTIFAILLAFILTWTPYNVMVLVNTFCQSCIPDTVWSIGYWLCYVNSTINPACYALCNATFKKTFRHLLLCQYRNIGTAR
As to the kind of experiment: Functional mobilization of intracellular calcium (FLIPR, Fluo-3), M4-CHO cells. As to conditions: for Emax: 100% efficacy is the maximum response obtained with the Carbachol control, read-out: M4 Efficacy. It counts as cell-based. The gist of the method:
as §1

The mark [1] stands for this setting: compound nos. 1-454, M1-CHO cells, calcium mobilization.
The mark [2] stands for this setting: compound nos. 1-454, M4-CHO cells, calcium mobilization.

Where two headings read alike, the source gives them in different places. A value given as a limit tells only on which side of the number the result lay.

Take `CCOC(=O)N1CCC(N2CCC3(CC2)CN(C(=O)c2cc(C)oc2C)c2ccc(F)cc23)CC1` [compound 335]: the Emax was less than 65% on M1 muscarinic receptor (compound nos. 1-454) and less than 55% on M4 muscarinic receptor (compound nos. 1-454). Besides, on M1 muscarinic receptor (setting [1]), the “M1 Activity” value is reported as “+ (activity was measured to be greater than or equal to 3.0 μM)”. The “M4 Activity” value at M4 muscarinic receptor (setting [2]) is on record as “+ (activity was measured to be greater than or equal to 4.0 μM)”.
For `CCOC(=O)N1CCC(N2CCC3(CC2)C[C@H](NC(C)=O)c2ccccc23)CC1` [compound 430], on M1 muscarinic receptor (compound nos. 1-454), the “M1 Activity” value was “++ (activity was measured to be between 0.7 μM and 3.0 μM)”; the Emax was less than 65%. For the same compound, at M4 muscarinic receptor (compound nos. 1-454), the “M4 Activity” value is given as “+ (activity was measured to be greater than or equal to 4.0 μM)” and the Emax was less than 55%.
`CN(C)C(=O)N1CC2(CCN(C3CC4CCC(C3)N4c3cnccn3)CC2)c2ccccc21` (stereo not shown) [compound 500]: the figures for the Emax on M1 muscarinic receptor (compound nos. 455-509) and on M4 muscarinic receptor (compound nos. 455-509) were greater than 100% and 25 to 100%, respectively. The “M1 Activity” value on M1 muscarinic receptor (compounds 455-509) is reported as “+++ (activity was measured to be less than or equal to 2.0 μM)”. The “M4 Activity” value on M4 muscarinic receptor (compounds 455-509) is “++ (activity was measured to be between 2.0 μM and 5.0 μM)”.
As to `CCOC(=O)N1CCC(CN2CCC3(CC2)C(=O)Nc2ccccc23)CC1` [compound 319], the Emax is less than 65% on M1 muscarinic receptor (compound nos. 1-454) and less than 55% on M4 muscarinic receptor (compound nos. 1-454). For the same compound, on M1 muscarinic receptor (setting [1]), the “M1 Activity” value was “++ (activity was measured to be between 0.7 μM and 3.0 μM)”. Also, the “M4 Activity” value on M4 muscarinic receptor (setting [2]) is “+ (activity was measured to be greater than or equal to 4.0 μM)”.
Regarding `CCOC(=O)N1CCC(N2CCC3(CC2)CN(C(=O)c2ccno2)c2ccc(F)cc23)CC1` [compound 321], the Emax on M1 muscarinic receptor (compound nos. 1-454) lay within 65 to 85%; at M4 muscarinic receptor (compound nos. 1-454), 55 to 70%. Moreover, at M1 muscarinic receptor (setting [1]), the “M1 Activity” value was “++ (activity was measured to be between 0.7 μM and 3.0 μM)”. Moreover, the “M4 Activity” value on M4 muscarinic receptor (setting [2]) is reported as “+ (activity was measured to be greater than or equal to 4.0 μM)”.
Turning to `Clc1ccc2c(c1)C1(CCN(C3CCCCCC3)CC1)CN2` [compound 333], the Emax on M1 muscarinic receptor (compound nos. 1-454) is less than 65%; at M4 muscarinic receptor (compound nos. 1-454), less than 55%. In addition, the “M1 Activity” value on M1 muscarinic receptor (setting [1]) is on record as “+ (activity was measured to be greater than or equal to 3.0 μM)”. Moreover, the “M4 Activity” value on M4 muscarinic receptor (setting [2]) was “+ (activity was measured to be greater than or equal to 4.0 μM)”.
Turning to `CC(=O)N1CC2(CCN(C3CC4CCC(C4)C3)CC2)c2cc(F)ccc21` (stereo not shown) [compound 35], the values for the Emax on M1 muscarinic receptor (compound nos. 1-454) and on M4 muscarinic receptor (compound nos. 1-454) were greater than 85% and greater than 70%, respectively. The “M1 Activity” value at M1 muscarinic receptor (setting [1]) is listed as “+++ (activity was measured to be less than or equal to 0.7 μM)”. The “M4 Activity” value at M4 muscarinic receptor (setting [2]) was “++ (activity was measured to be between 0.1 μM and 4.0 μM)”.
Turning to `CN(C)C(=O)N1CC2(CCN(C3(C)CCN(c4cnccn4)CC3)CC2)c2ccccc21` [compound 465], the Emax was greater than 100% at M1 muscarinic receptor (compound nos. 455-509) and 25 to 100% on M4 muscarinic receptor (compound nos. 455-509). Further, the “M1 Activity” value at M1 muscarinic receptor (compounds 455-509) was “++ (activity was measured to be between 2.0 μM and 5.0 μM)”. Further, the “M4 Activity” value on M4 muscarinic receptor (compounds 455-509) is “++ (activity was measured to be between 2.0 μM and 5.0 μM)”.
For `CC(C)OC(=O)N1C2CCC1CC(N1CCC3(CC1)CN(C(=O)O[C@@H]1CCOC1)c1ccc(F)cc13)C2` (stereo partly shown) [compound 361], the figures for the Emax at M1 muscarinic receptor (compound nos. 1-454) and on M4 muscarinic receptor (compound nos. 1-454) were less than 65% and less than 55%, respectively. Also, at M1 muscarinic receptor (setting [1]), the “M1 Activity” value was “++ (activity was measured to be between 0.7 μM and 3.0 μM)”. The “M4 Activity” value on M4 muscarinic receptor (setting [2]) is given as “+ (activity was measured to be greater than or equal to 4.0 μM)”.
Regarding `COc1ccc(F)cc1N1CCC(N2CCC3(CC2)CN(C(=O)N(C)C)c2ccc(F)cc23)CC1` [compound 443], at M1 muscarinic receptor (compound nos. 1-454), the “M1 Activity” value is “++ (activity was measured to be between 0.7 μM and 3.0 μM)”; the Emax lay within 65 to 85%. Moreover, at M4 muscarinic receptor (compound nos. 1-454), the “M4 Activity” value is “++ (activity was measured to be between 0.1 μM and 4.0 μM)”; the Emax was 55 to 70%.
With `CCOC(=O)N1C2CCC1CC(N1CCC3(CC1)CC(=O)Nc1ccccc13)C2` (stereo not shown) [compound 56], the values for the Emax on M1 muscarinic receptor (compound nos. 1-454) and on M4 muscarinic receptor (compound nos. 1-454) were 65 to 85% and 55 to 70%, respectively. For the same compound, the “M1 Activity” value on M1 muscarinic receptor (setting [1]) is “+++ (activity was measured to be less than or equal to 0.7 μM)”. Further, the “M4 Activity” value at M4 muscarinic receptor (setting [2]) is reported as “+++ (activity was measured to be less than or equal to 0.1 μM)”.
For `CC(=O)N1CC2(CCN(C3CCN(C(=O)OC4CCC4)CC3)CC2)c2cc(F)ccc21` [compound 140], in that order: greater than 85%, greater than 70%, “+++ (activity was measured to be less than or equal to 0.7 μM)” and “+++ (activity was measured to be less than or equal to 0.1 μM)”.
Take `CCCOC(=O)N1C2CCC1CC(N1CCC3(CC1)CN(C(=O)OCCOC)c1ccc(F)cc13)C2` (stereo not shown) [compound 405]: on M1 muscarinic receptor (compound nos. 1-454), the “M1 Activity” value was “++ (activity was measured to be between 0.7 μM and 3.0 μM)”; the Emax was less than 65%. For the same compound, on M4 muscarinic receptor (compound nos. 1-454), the “M4 Activity” value is listed as “+ (activity was measured to be greater than or equal to 4.0 μM)” and the Emax was less than 55%.
